Data published in BindingDB's records for PubMed 29133594 (University of North Carolina at Chapel Hill).

Legend:
Aurora kinase B = Aurora kinase B (Homo sapiens, UniProt Q96GD4); assay: Inhibition of AURKB (unknown origin)
[1] = target: Mitogen-activated protein kinase 3 (Homo sapiens, UniProt P27361); assay: Inhibition of ERK1 (unknown origin)
[2] = target: Serine/threonine-protein kinase PLK1 (Homo sapiens, UniProt P53350); assay: Inhibition of PLK1 (unknown origin)
[3] = target: RAF proto-oncogene serine/threonine-protein kinase (Homo sapiens, UniProt P04049); assay: Inhibition of CRAF (unknown origin)
Aurora kinase A = target: T1, Aurora kinase A (Homo sapiens, UniProt O14965); assay: Inhibition of AURKA (unknown origin)
T1 sequence (O14965 whole entry): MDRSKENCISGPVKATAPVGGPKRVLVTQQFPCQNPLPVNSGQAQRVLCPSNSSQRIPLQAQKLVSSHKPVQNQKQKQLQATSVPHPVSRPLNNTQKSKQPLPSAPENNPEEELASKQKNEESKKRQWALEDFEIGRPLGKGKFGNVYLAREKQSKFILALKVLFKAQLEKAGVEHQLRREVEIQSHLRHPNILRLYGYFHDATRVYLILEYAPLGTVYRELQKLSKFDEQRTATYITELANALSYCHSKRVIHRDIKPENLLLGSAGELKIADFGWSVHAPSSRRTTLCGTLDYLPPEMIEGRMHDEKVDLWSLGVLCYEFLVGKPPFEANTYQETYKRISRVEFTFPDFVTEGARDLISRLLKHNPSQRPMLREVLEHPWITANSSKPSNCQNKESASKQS

[4] = target: RAC-alpha serine/threonine-protein kinase (Homo sapiens, UniProt P31749); assay: Inhibition of AKT1 (unknown origin)
[5] = target: Serine/threonine-protein kinase PLK3 (Homo sapiens, UniProt Q9H4B4); assay: Inhibition of PLK3 (unknown origin)
Serine/threonine-protein kinase PLK3, sequence (Q9H4B4 whole entry): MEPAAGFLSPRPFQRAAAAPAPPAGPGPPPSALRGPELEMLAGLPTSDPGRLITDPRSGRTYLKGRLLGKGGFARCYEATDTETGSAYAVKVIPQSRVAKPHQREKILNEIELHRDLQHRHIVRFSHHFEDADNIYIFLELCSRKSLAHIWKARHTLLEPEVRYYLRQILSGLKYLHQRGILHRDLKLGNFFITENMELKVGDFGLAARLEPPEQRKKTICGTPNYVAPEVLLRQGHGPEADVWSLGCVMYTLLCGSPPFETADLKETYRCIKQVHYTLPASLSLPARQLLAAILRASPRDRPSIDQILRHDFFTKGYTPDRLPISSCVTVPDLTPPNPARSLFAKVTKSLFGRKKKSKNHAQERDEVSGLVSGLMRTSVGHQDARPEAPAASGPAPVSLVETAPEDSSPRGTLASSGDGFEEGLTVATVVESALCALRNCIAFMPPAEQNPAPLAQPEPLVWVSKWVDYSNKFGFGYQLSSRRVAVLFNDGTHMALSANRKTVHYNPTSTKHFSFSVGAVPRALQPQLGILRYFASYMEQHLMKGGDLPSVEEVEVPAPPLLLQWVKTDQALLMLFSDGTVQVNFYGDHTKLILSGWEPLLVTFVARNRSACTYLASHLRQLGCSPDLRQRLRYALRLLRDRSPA

Serine/threonine-protein kinase PLK1, sequence (P53350 whole entry): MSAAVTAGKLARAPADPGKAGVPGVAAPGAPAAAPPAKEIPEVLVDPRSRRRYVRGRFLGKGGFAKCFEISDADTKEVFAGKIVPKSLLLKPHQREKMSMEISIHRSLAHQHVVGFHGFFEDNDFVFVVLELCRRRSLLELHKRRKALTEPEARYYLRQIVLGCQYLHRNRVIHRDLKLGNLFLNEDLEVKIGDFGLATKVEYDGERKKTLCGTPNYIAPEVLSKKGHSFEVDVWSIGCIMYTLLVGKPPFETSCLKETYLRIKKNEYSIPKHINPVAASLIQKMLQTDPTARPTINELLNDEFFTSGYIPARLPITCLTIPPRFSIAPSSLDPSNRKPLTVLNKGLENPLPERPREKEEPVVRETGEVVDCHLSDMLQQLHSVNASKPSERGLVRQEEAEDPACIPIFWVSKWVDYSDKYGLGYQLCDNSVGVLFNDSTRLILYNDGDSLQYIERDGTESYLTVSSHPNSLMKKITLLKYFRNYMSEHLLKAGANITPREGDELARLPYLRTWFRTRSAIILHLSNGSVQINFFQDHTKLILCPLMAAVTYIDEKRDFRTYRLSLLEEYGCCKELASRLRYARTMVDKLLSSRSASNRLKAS
Aurora kinase B, sequence (Q96GD4 whole entry): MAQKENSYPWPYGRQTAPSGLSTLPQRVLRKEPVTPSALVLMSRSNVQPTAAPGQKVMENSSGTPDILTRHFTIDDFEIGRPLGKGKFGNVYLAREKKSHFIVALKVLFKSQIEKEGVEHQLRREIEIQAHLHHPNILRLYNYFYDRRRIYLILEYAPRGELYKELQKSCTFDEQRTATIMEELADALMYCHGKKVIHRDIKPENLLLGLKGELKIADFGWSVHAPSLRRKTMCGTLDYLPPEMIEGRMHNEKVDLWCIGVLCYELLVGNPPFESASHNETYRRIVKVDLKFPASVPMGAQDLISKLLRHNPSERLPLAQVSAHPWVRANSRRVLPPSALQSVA
RAC-alpha serine/threonine-protein kinase, sequence (P31749 whole entry): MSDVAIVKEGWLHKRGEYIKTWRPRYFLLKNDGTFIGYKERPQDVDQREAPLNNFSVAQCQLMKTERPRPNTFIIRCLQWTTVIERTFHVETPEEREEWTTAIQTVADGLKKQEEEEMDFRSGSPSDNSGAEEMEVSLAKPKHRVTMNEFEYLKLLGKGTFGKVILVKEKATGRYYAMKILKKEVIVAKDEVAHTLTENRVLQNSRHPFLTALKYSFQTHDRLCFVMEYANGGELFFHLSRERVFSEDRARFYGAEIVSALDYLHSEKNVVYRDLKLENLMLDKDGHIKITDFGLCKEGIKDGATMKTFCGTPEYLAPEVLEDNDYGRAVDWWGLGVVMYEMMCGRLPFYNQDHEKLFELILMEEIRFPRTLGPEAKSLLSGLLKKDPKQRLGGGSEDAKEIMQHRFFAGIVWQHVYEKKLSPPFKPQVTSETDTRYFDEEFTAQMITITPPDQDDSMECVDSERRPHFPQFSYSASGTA
Mitogen-activated protein kinase 3, sequence (P27361 whole entry): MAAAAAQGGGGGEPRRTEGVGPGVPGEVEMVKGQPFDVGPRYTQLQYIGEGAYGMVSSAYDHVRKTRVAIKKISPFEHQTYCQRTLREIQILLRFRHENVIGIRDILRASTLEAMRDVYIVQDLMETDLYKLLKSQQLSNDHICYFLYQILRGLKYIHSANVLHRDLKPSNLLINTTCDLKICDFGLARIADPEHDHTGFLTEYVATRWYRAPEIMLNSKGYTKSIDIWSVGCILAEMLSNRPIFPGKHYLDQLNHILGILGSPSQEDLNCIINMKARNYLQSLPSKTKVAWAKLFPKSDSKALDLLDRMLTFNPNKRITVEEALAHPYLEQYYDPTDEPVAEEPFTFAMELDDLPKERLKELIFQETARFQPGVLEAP
RAF proto-oncogene serine/threonine-protein kinase, sequence (P04049 whole entry): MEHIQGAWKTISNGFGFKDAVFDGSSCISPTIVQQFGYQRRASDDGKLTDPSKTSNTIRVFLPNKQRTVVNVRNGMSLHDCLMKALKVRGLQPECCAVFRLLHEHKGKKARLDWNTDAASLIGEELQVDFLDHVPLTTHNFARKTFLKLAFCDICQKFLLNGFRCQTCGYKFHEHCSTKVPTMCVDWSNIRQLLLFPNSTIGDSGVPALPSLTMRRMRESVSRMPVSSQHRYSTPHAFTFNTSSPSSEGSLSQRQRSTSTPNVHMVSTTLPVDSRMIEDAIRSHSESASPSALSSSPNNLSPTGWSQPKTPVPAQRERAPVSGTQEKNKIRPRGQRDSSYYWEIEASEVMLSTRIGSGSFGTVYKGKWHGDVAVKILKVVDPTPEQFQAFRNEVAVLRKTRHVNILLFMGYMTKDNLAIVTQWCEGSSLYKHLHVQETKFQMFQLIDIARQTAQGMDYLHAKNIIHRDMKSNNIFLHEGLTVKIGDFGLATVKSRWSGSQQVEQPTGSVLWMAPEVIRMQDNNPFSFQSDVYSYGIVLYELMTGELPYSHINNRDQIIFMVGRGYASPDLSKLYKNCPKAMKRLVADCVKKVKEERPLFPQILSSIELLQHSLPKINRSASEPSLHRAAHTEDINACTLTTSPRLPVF

IC50 (Aurora kinase B): > 20 µM | IC50 [1]: > 20 µM | IC50 [2]: > 20 µM | IC50 [3]: > 20 µM | IC50 (Aurora kinase A): > 20 µM | IC50 [4]: > 20 µM | IC50 [5]: > 20 µM
SMILES: CCN1CCN(Cc2ccc(Nc3ncc(F)c(-c4cc(F)c5nc(C)n(C(C)C)c5c4)n3)nc2)CC1 [Abemaciclib]
